Experimental data taken from patent US20240268372A1, “Methods and Compositions for Extending Organ and Tissue Preservation” (The General Hospital Corporation, priority 2021, published 2024).

Key:
[1] = tested on: discarded DCD human livers; assay: Normothermic machine perfusion (NMP) of discarded human livers with emricasan in the perfusate: hepatocellular and cholangiocellular function
Text: Human liver perfusions: Sixteen human livers from donation after circulatory death, with consent for research, were included in this study after being turned down by all transplant centers in the respective region of procurement. Human livers were procured in standard fashion through two Organ Procurement Organizations (OPO): New England Donor Services (Waltham, MA, USA) and LiveOnNewYork (New York, NY). In addition, one liver was obtained through the International Institute for the Advancement of Medicine (IIAM, Edison, NJ), which originated from the Gift of Life Donor Program (Philadelphia, PA). Informed consent was obtained from donors by the OPO. The Massachusetts General Hospital and Lifespan Institutional Review Boards, as well as the two OPOs and IIAM, approved this study (No. 2011P001496). No organs were procured from prisoners and no vulnerable populations were included in this study.
Procurement techniques based on donation after circulatory death followed standard methods. Donor livers were flushed in situ with University of Wisconsin solution. Total warm ischemic time was defined as the period from extubation to cold flush. Functional WIT was defined as the period from asystole to cold flush. Cold ischemic time was defined from cold flush to initiation of machine perfusion. All livers were transported via ground courier. After arrival to the laboratory under static cold storage, livers underwent standard back bench preparation for machine perfusion.
Grafts were perfused on the Liver Assist device (Organ Assist, Groningen, Netherlands) using a previously described protocol (see, e.g., ref. 14). Briefly, perfusate composition consisted of O+ packed red blood cells, human albumin, Lactated Ringer's solution, and heparin. […] Perfusate, bile, and tissue biopsies were collected and analyzed at multiple time points. Grafts were assessed for adequate hepatocellular and cholangiocellular function. […] Cholangiocellular (biliary) viability metrics were measured according to van Leeuwen (see, e.g., ref. 15). […]

[2] = tested on: discarded DCD human livers; assay: Perfusate plasma apoptosis biomarkers, cell-free DNA and cytokines during liver NMP (ELISA kits)
Protocol: With respect to the experimental group (emricasan, EM), 5 consecutive human livers turned down for transplant were enrolled. Emricasan, also known as IDN-6556 (MedChemExpress, Monmouth Junction, NJ), dissolved in DMSO was added to the circulating perfusate prior to initiation of liver perfusion at a dose of 5 mg/kg liver weight (1 mL total volume, 0.05% v/v total perfusate). Vehicle control (1 mL DMSO) was previously incorporated in the control liver perfusions (FIG. 6).
Protein Analysis: Perfusate collected at the indicated time points was centrifuged at 5000 g and the plasma collected and stored at −80° C. for later analysis. Enzyme-linked immunosorbent assays (ELISA) were performed for various proteins according to manufacturers' guidelines.

[3] = tested on: discarded DCD human livers; assay: Western immunoblot and LC3B immunohistochemistry of liver biopsies during NMP (UPR, autophagy, necroptosis)
Protocol: Sequential wedge biopsies from the right lobe of each liver were performed at indicated intervals, flash frozen in liquid nitrogen, and stored at −80° C. Tissue samples (20 mg) were homogenized and Western immunoblots performed as previously described (see, e.g., ref. 16). A full list of antibodies used is provided below in Table 3.
To compare target protein expression, densitometry quantification was conducted. Both proteins varied across samples and the changes were not consistent between the 2 proteins, with the variation representing the biologic variability in the human liver.
In brief, immunohistochemistry was performed using antibodies directed toward LC3B (Product No. NB100-2220, Novus Biologicals, Littleton, CO, USA). Paraffin sections (6 μm) were deparaffinized with xylene and rehydrated with graded ethanol. Antigen retrieval was performed by sub-boiling in 1×-diluted Dako Target Retrieval Solution for 10 min (DakoCytomation, Inc., Carpinteria, CA). Slides were then quenched in 3% H2O2 and blocked in 2.5% Normal Horse Serum (Vector Labs, Burlingame, CA) before overnight incubation in primary antibody (1:200 dilution) at 4° C. Slides were incubated with a horseradish-peroxidase conjugated secondary rabbit antibody (Vector Laboratories) for 1 hr prior to staining with DAB (Vector Laboratories). Slides were counterstained with hematoxylin. Omission of the primary antibody served as a negative control.

[4] = tested on: discarded DCD human livers; assay: RNA sequencing of liver biopsies during NMP (differential expression, IPA, GO)
Protocol: RNA purification and sequencing: Core needle biopsies taken immediately prior to perfusion and after 3 and 6 hours of perfusion were used for transcriptome sequencing. […] The differential gene expression threshold for significance was set to a Benjamini-Hochberg false discovery rate (FDR)<0.05.
In brief, tissues samples from livers taken immediately prior to perfusion and after 3 and 6 hours of perfusion were used for transcriptome sequencing. Core needle biopsies from the right liver lobe were collected in RNAlater solution (Sigma-Millipore, Waltham, MA, USA) and stored overnight at 4° C. Tissue samples were then removed from solution and stored at −80° C. Total RNA was isolated using the RNeasy Mini Kit (Qiagen, Germantown, MD, USA) according to manufacturer guidelines. 500 ng of each sample was sequenced on an Illumina HiSeq 4000 using 9 PCR cycles by GENEWIZ (South Plainfield, NJ, USA). Raw RNA-Seq data files were transferred to the Brown University computing cluster via sFTP and aligned to the human genome build 38 using STAR 2.7.3a (see, e.g., ref. 25). While sequencing was performed in two batches, the alignment was performed on all samples simultaneously using the same settings.
In brief, raw read counts were normalized using the Trimmed Mean of M method following removal of low-count genes (fewer than 10 reads in the smallest library). Differential gene expression analysis was conducted in R (see, e.g., ref. 27) using edgeR (see, e.g., ref. 28). The significance cutoff for differential gene expression was set to a Benjamini-Hochberg false-discovery rate (FDR or q-value)<0.05. Canonical pathway and upstream regulator enrichment analysis was generated through Ingenuity Pathway Analysis (IPA, Qiagen) (see, e.g., ref. 29). […]
Gene ontology (GO) enrichment analysis was performed using the R package GOseq (see, e.g., ref. 31). […] The genes with the highest amount of variance explained by principal component 1, 2, or 3 cumulatively totaling to 10% of the total variance explained by the specified PC were further analyzed.

[5] = tested on: discarded DCD human livers; assay: H&E histology of liver biopsies during NMP; conditions: EM, IHF and AHF livers
Protocol: Histology and immunohistochemistry: Core needle biopsies taken from the right liver lobe at indicated intervals were fixed in formalin and embedded in paraffin. Hematoxylin and eosin (H&E) stains were performed on all biopsies to assess the degree of necrosis, inflammatory cell infiltrate, and reperfusion injury using a validated scoring system (see, e.g., ref. 17). Immunohistochemistry for LC3 was performed as previously described (see, e.g., ref. 3).

rodent LT models = conditions: drug given at the time of liver procurement; cited from earlier work
LT recipients = conditions: emricasan in preservation flush solution vs placebo group; cited from earlier work
[6] = clinical trials for liver transplant and NASH; cited from earlier work

Compound: C[C@H](NC(=O)C(=O)Nc1ccccc1C(C)(C)C)C(=O)N[C@@H](CC(=O)O)C(=O)COc1c(F)c(F)cc(F)c1F [emricasan]
- number of emricasan-treated livers demonstrating adequate hepatocellular function ([1]; 5 livers treated, 5 mg/kg liver weight in perfusate, NMP): 4
- IRI in cholangiocytes / cholangiocellular function ([1]; end-ischemic NMP of DCD livers): did not appear to improve IRI in cholangiocytes
- ischemia-reperfusion injury in hepatocytes ([1]; treatment during NMP after cold and warm ischemia): mitigated
- circulating cell-free DNA (DAMP) ([2]; NMP, compared to control groups): significantly reduced
- perfusate caspase-3/7 enzyme activity ([2]; NMP, vs control groups): significantly lower
- perfusate level of cleaved cytokeratin 18 ([2]; NMP, vs control groups): significantly lower
- evidence of apoptosis (circulating cleaved cytokeratin 18 and caspase-3/7 activity) ([2]; after both 3 and 6 hours of NMP): significantly decreased
- cell-free DNA in perfusate ([2]; at 1 and 6 hours of NMP): significantly lower
- circulating interleukin-1β (IL-1β) ([2]; compared only to IHF livers): lower
- circulating tumor necrosis factor-α (TNFα) ([2]; compared only to IHF livers): lower
- perfusate interferon-γ (IFNG) ([2]; compared to AHF and IHF groups): significantly lower
- perfusate interleukin-6 (IL-6) ([2]; compared to AHF and IHF groups): significantly lower
- perfusate interleukin-8 (IL-8) ([2]; compared to AHF and IHF groups): significantly lower
- shift of LC3B to granule staining pattern (immunohistochemistry) ([3]; 3 and 6 hr of NMP): not observed
- induction of necroptosis ([3]; NMP with emricasan): did not lead to induction of necroptosis
- Phospho-MLKL ([3]; before and during perfusion): below the limit of detection
- enrichment of IRI canonical pathways (innate immunity, sinusoidal endothelial cell activation), IPA ([4]; 3 and 6 h vs pre-perfusion): minimal enrichment
- differentially expressed genes after 3 and 6 hours of NMP vs pre-perfusion ([4]; compared to both control groups): markedly smaller set of DEGs
- upregulation of pro-inflammatory and pro-death genes ([4]; compared to controls (viable and nonviable livers)): decreased upregulation
- inflammatory infiltrate or necrosis (H&E histology) [5]: no significant differences
- survival in rodent LT models (rodent LT models): improved
- AST and ALT levels in LT recipients (LT recipients): significantly lower
- safety and tolerance profile [6]: excellent
